Laboratory results published in US10226476B2, “Method of attenuating reactions to skin irritants” (Dana-Farber Cancer Institute, Inc., priority 2001, dated 2019).
Entries after “also recorded” stand apart in the source; their conditions may differ.

System: oxazolone-induced contact hypersensitivity in mice
Assay: oxazolone-induced contact hypersensitivity (hapten-specific increase in ear thickness at 24 hours)
Type: in vivo, mouse
Conditions: for effect on CSH/CHS response to oxazolone, systemic administration: systemic (i.p.) administration
Source text: 8-12 week old female C57B1/6 mice were purchased from Taconic Farms. Inc. (Germantown, N.Y.). The CD1d-null allele (generated in a 129×C57B1/6 founder (25) (26) was backcrossed 7 generations into the C57B1/6 strain. (15) Homozygous CD1d deficient mice were obtained from littermate pairings and used to generate heterozygote CD1d deficient and wild type controls. Breeding pairs of mice deficient for CD1d on the BALB/c background were purchased from Jackson Labs (Bar Harbor, Me.). The C57B1/6 and BALB/c J 281 null mice were established by specific deletion of the J 281 gene segment (27) (28). All mouse experiments were approved and conducted under IACUC guidelines.
Mice at least seven weeks of age were sensitized epicutaneously on day 0 with 70 μl of 4% 4-ethoxymethylene-2-phenyl-2-oxazolin-5-one (oxazolone, Sigma, St. Louis, Mo.) in acetone/olive oil (4/1) and challenged five days later on the right ear with 20 μl of 0.5% oxazolone or carrier only on the left ear. The hapten-specific increase in ear thickness at 24 hours was determined with a micrometer.
Mice received a series of 5 intraperitoneal injections of either 2 μg of αManCer (2 μg i.p. diluted in a solution of phosphate buffered saline and 0.5% Tween-20 every other day, starting 3 days prior to skin sensitization and continuing through to re-challenge.
Significant differences between groups were evaluated with a Mann-Whitney test, or where appropriate, a two tailed Student's t test. Mean differences were considered significant when p<0.05.

| Molecule | effect on CSH/CHS response to oxazolone, systemic administration (result in words) | inhibition of oxazolone-induced CSH in MHC-unrelated mouse strains (topical 100 mg/ml, SWR, C57B1/10, DBA, BALB/c mice, FIG. 5, result in words) | Half-maximal inhibition of CSH (topical concentration) (topical, applied with 4% oxazolone at sensitization, wild type C57B1/6 mice, FIG. 4A) [mg/mL] | inhibition of contact hypersensitivity, inhibitor present at both phases (topical, during both priming and recall, FIG. 4B, result in words) | inhibition of contact hypersensitivity, inhibitor present in one phase only (topical, only during priming or only during recall, FIG. 4B, result in words) | inhibition of oxazolone-induced contact hypersensitivity, topical at sensitization (topical, with oxazolone on day 0 (100 mg/ml, or increasing doses 0-100 mg/ml), FIG. 3, 4A, result in words) | inhibition of CSH by control substances (specificity) (specificity controls for DPPE-PEG, FIG. 2 and data not shown, result in words) |
| --- | --- | --- | --- | --- | --- | --- | --- |
| 1,2-Dipalmitoyl-sn-Glycero-3-Phosphoethanolamine-N-[Poly(ethylene glycol) 2000] [DPPE-PEG] | inhibited CHS as effectively as α-ManCer | effective inhibitor in all strains tested | 25 | maximally inhibited | also inhibited, but to a lesser extent | inhibits oxazolone-induced contact hypersensitivity; also recorded: inhibit oxazolone-induced hypersensitivity in a dose-dependent manner |  |
| CCCCCCCCCCCCCCCC(=O)O [palmitic acid, reference compound] |  |  |  |  |  |  | neither palmitic acid, nor PEG alone were effective inhibitors of CSH |
| CCCCCCCCCCCCCCCCCCCCCCCCCC(=O)N[C@@H](COC1O[C@H](CO)[C@H](O)[C@H](O)[C@H]1O)[C@H](O)[C@H](O)CCCCCCCCCCCCCC (stereo partly drawn) [α-GalCer, (2S,3S,4R)-1-O-(-D-galactopyranosyl)-2-(N-hexacosanoylamino)-1,3,4-octadecanetriol, reference compound] | did not alter the CSH response |  |  |  |  |  |  |
